Test results taken from article PMC6274376, “Naturally Inspired Molecules as Multifunctional Agents for Alzheimer’s Disease Treatment” (Molecules, 2016).
Several values for one entry are separate records, joined by “and”; a condition that tells them apart may be missing. Identical values can stand only once. Counter-ions that a name gives are not always drawn.

Legend:
CatD = CatD (Homo sapiens, UniProt P07339); experiment: CatD inhibition; type: biochemical; details: up to 0.5 μM
hBACE-1 = hBACE-1 (Homo sapiens, UniProt P56817); experiment: BACE-1 FRET inhibition assay; type: biochemical; details: for inhibition at 5 µM: tested at 5 µM concentration; for IC50: FRET assay, average of multiple experiments each in triplicate, ± SEM
Description: The new benzophenone-based hybrids 3–7 presented in this study were first evaluated for their in vitro ability to inhibit the enzymatic activity of BACE-1, by means of a biochemical assay performed using the fluorescence resonance energy transfer (FRET) methodology and in comparison to inhibitor IV [22] as reference compound (Table 1). For the most interesting compounds 3–5, endowed with the orto-hydroxycarbonyl substitution pattern, the neuroprotective potential was determined as lack of toxic effects on neuronal cell viability and as Cu(II) chelating activity (Table 2); moreover, their direct interactions with Cu(II) ion were confirmed by a UV-vis spectrophotometric study.
Inhibition studies were performed using the following procedure: 5 μL of test compound (or DMSO) were pre-incubated with 175 μL of enzyme (10.37 nM, final concentration) in 20 mM NaOAc pH 4.5 containing CHAPS (0.1% w/v) for 1 h at r.t.; M-2420 (3 μM, final concentration) was then added and left to react for 15 min. The fluorescence signal was read at λem = 405 nm (λexc = 320 nm). DMSO concentration in the final mixture was maintained below 5% (v/v) to guarantee no significant loss of enzyme activity.Fluorescence intensities with and without inhibitor were compared and the percent inhibition due to the presence of test compounds was calculated. The background signal was measured in control wells containing all the reagents, except theenzymeand subtracted. The % inhibition due to the presence of increasing test compound concentration was calculated by the following expression: 100 − (IFi/IFo × 100) where IFi and IFo are the fluorescence intensities obtained for the enzyme in the presence and in the absence of inhibitor, respectively. Inhibition curves were obtained for each compound by plotting the % inhibition versus the logarithm of inhibitor concentration in the assay sample. The linear regression parameters were determined and the IC50 extrapolated (GraphPad Prism 4.0, GraphPad Software Inc., San Diego, CA, USA).

SH-SY5Y cells = experiment: Neurotoxicity, MTT cell viability assay; type: cell-based, human; details: for IC50: Homo sapiens, SH-SY5Y cells, 24 h treatment, 1.25–40 µM, MTT, mean ± SD
Description: Cytotoxic effects in several in vitro or in vivo models have been reported for some chalcones. Therefore, to discriminate the neurotoxic concentrations of the conjugates 3–5 we evaluated the cell viability of human neuronal SH-SY5Y cells after 24 h treatment with these conjugate at different concentrations (1.25–40 μM) using the MTT assay. […] Thus, the presence of an α,β-unsatured carbonyl fragment seems to positively influence the degree of neuronal toxicity, leading to molecules endowed with a favorable SI.
Human neuronal (SH-SY5Y) cells were routinely grown in Dulbecco’s modified Eagle’ Medium (DMEM) supplemented with 10% fetal bovine serum, 2 mmol/L-glutamine, 50 U·mL^−1penicillin and 50 μg·mL^−1streptomycin at 37 °C in a humidified incubator with 5% CO2.
To evaluate the neurotoxicity of compounds, the SH-SY5Y cells were seeded in 96-well plates at 2 × 10^4 cells/well, incubated for 24 h and subsequently treated with various concentrations of compounds (1.25–40 µM) for 24 h at 37 °C in 5% CO2;. The cell viability in terms of mitochondrial metabolic function was evaluated by the reduction in 3-(4,5-dimethyl-2-thiazolyl)-2,5-diphenyl-2H-tetrazolium bromide (MTT) to formazan as previously described. The quantity of formazan was directly proportional to the number of viable cells. Briefly, the treatment medium was replaced with MTT (5 mg/mL) in phosphate-buffered saline (PBS) for 2 h at 37 °C in 5% CO2. After washing with PBS, the formazan crystals were dissolved with isopropanol. The amount of formazan was measured (570 nm, reference filter 690 nm) using a multilabel plate reader (VICTOR™ X3, PerkinElmer, Waltham, MA, USA). The neurotoxicity is expressed as concentration of compound resulting in 50% inhibition of cell viability.

[1] = Cu(II) chelating assay (bathocuproinedisulfonic acid disodium salt, BCS); type: physicochemical
Description: Data were expressed as chelating activity percentage (Table 2).
The Cu(II) chelating activity of the compounds was determined using the bathocuproinedisulfonic acid disodium salt (BCS) assay as previously described. Briefly, 50 μL of a 0.25 mM CuSO4 solution were mixed for 2 min with 50 μL of 5–20 µM compound solution in 100 µL of HEPES buffer (15 mM). Hydroxylamine (1 mM) was added after 2 min in order to reduce non-chelated cupric ions into cuprous ones. Finally, 50 μL of BCS (5 mM) or water (blank) was added and the absorbance at 490 nm was measured by spectrophotometry using a multilabel plate reader (VICTOR™ X3, PerkinElmer, Waltham, MA, USA) immediately and at 5 min. Na2EDTA (5–20 µM) was used as a positive control. The ability of the test compounds to chelate cupric ions was calculated using the following equation: chelating activity (%) = [1 − (Abs BCS + compound/Abs BCS) × 100].

[2] = UV-vis spectrophotometric evaluation of Cu(II) ion complexation; type: physicochemical
From the text: Chalcone conjugates 4 and 5 were investigated to evaluate their ability to complex Cu(II) ions via a UV-vis spectrophotometric study.
Therefore, we decided to carry on the spectrophotometric measurements in a mixed solvent: aqueous MOPS aqueous buffer […] pH 7.4 /DMF in 1:4 ratio, respectively. Flavonoids bearing the 4-carbonyl-5-hydroxyl chelation site have characteristic UV-vis spectra, characterized by a wide and non-structured band centred around 370–380 nm, with a molar extinction coefficient of 50,000 cm^−1·M^−1 that is attributed to HOMO-LUMO transition with a π-π* character.
All reagents and solvents were used as received (from Aldrich, St. Louis, MO, USA) without further purification: copper(II) sulphate hydrate (≥98%), 3-(N-Morpholino)propanesulfonic acid (MOPS, ≥99.5%), sodium hydroxide (≥98%), N,N-dimethylformamide (spectroscopic grade, DMF). A Milli-Q system (Millipore, Billerica, MA, USA) was used for the purification of water (resistivity ≥18.2 MΩ). MOPS bufferstock solution were obtained by a dissolution in Milli-Q water of 3-(N-morpholino)propane sulphonic acid to a final concentration of 10^−3 M. The pH was corrected with a solution of sodium hydroxide 1 N to a value of pH 7.4. Absorption spectra were recorded on a Perkin-Elmer Lambda 45 spectrophotometer at room temperature. Spectrophotometric titrations were performed as follows: stock solutions of ligands (ca. 10^−3 M) were prepared in DMF, diluted down to the desired concentration, in the quartz cuvette, in MOPS buffer 10^−3 M pH 7.4/DMF (1:4) to a final volume of 2.5 mL and then titrated by adding increasing amounts of Cu(II) (3.04 × 10^−3 Min DMF).

[3] = 5 µM compound, fixed 40 µM CuSO4
[4] = 10 µM compound, fixed 40 µM CuSO4
[5] = 20 µM compound, fixed 40 µM CuSO4, mean ± SD

hBACE-1, sequence (P56817 46-501): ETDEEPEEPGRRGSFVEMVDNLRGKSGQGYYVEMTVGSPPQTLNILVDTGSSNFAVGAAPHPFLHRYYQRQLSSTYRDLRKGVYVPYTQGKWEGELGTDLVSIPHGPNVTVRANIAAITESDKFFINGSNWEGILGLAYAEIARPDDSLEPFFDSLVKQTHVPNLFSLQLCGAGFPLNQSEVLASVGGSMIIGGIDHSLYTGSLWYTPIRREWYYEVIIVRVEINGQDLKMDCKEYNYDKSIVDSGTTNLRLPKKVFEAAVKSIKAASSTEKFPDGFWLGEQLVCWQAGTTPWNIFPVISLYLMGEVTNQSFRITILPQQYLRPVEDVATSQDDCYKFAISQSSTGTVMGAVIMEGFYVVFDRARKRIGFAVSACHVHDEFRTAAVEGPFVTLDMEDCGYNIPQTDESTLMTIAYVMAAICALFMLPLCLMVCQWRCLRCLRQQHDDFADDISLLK
CatD, sequence (P07339 65-412): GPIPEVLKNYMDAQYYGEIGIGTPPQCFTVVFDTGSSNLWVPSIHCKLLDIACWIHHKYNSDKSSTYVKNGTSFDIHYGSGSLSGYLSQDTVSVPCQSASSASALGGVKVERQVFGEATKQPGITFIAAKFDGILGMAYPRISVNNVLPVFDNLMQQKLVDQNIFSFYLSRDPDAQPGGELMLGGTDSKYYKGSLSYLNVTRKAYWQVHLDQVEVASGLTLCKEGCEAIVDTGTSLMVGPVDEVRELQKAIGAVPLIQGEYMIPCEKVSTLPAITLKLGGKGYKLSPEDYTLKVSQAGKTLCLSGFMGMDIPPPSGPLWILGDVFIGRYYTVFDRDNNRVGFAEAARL

With `COc1ccc(C(=O)c2ccc(CN(C)Cc3ccccc3)cc2)cc1OC` [Compound 1] the CatD inhibition (CatD) was “not inhib” and the inhibition at 5 µM (hBACE-1) was 20%.
In the case of `CC(=O)c1ccc(OCCOc2ccc(C(=O)c3ccc(CN(C)Cc4ccccc4)cc3)cc2)cc1O` [Compound 3, 1-{4-[2-(4-4-Benzylmethylaminomethylbenzoylphenoxy)ethoxy]-2-hydroxyphenyl}ethan-1-one], the IC50 (SH-SY5Y cells) is reported as 10.9 ± 1.63 µM, the IC50 (hBACE-1) is reported as 3180 ± 210 nM and the “Cu(II)-Chelating Activity” value [1, 3] is reported as 0.00%. For the same molecule, the “Cu(II)-Chelating Activity” value [1, 4] was 3.49% and the “Cu(II)-Chelating Activity” value [1, 5] was 5.37% and 5.37 ± 0.16%.
For `CN(Cc1ccccc1)Cc1ccc(C(=O)c2ccc(OCCOc3ccc4c(c3)OC(c3cccc5ccccc35)CC4=O)cc2)cc1` (centres unmarked) (as salt: HCl) [Compound 7], the melting point was 172 to 195 °C.
In the case of `COc1cc(C2CC(=O)c3ccc(OCCOc4ccc(C(=O)c5ccc(CN(C)Cc6ccccc6)cc5)cc4)cc3O2)cc(OC)c1OC` (centres unmarked) [Compound 6, 7-{2-[4-(4-Benzylmethylaminomethylbenzoyl)phenoxy]ethoxy}-2-(3,4,5-trimethoxyphenyl)chroman-4-one], the IC50 (hBACE-1) is reported as 1560 ± 230 nM.
`CN(Cc1ccccc1)Cc1ccc(C(=O)c2ccc(OCCOc3ccc(C(=O)/C=C/c4cccc5ccccc45)c(O)c3)cc2)cc1` (as salt: HCl) [Compound 5, E-1-{4-[2-(4-4-Benzylmethylaminomethylbenzoylphenoxy)ethoxy]-2-hydroxyphenyl}-3-(naphthalen-1-yl)-prop-2-en-1-one] gave a melting point of 197 to 199 °C.
In the case of `CN(Cc1ccccc1)Cc1ccc(C(=O)c2ccc(OCCOc3ccc4c(c3)OC(c3cccc5ccccc35)CC4=O)cc2)cc1` (centres unmarked) [Compound 7], the IC50 (hBACE-1) is reported as 3970 ± 330 nM.
Molecule `COc1cc(/C=C/C(=O)c2ccc(OCCO)cc2O)cc(OC)c1OC` [Compound 2, (E)-1-[2-Hydroxy-4-(2-hydroxyethoxyphenyl)]-3-(3,4,5-trimethoxyphenyl)prop-2-en-1-one] has an inhibition at 5.2 µM (hBACE-1; at 5.2 μM) of 35.9%, an inhibition at 5 µM (hBACE-1) of 20% and a melting point of 186 to 188 °C.
For `COc1cc(/C=C/C(=O)c2ccc(OCCOc3ccc(C(=O)c4ccc(CN(C)Cc5ccccc5)cc4)cc3)cc2O)cc(OC)c1OC` [Compound 4, E-1-{4-[2-(4-4-Benzylmethylaminomethylbenzoylphenoxy)ethoxy]-2-hydroxyphenyl}-3-(3,4,5-trimethoxy-phenyl)prop-2-en-1-one], the “ability to complex Cu(II) ions” value ([2]; UV-vis spectra, MOPS buffer pH 7.4/DMF 1:4) was “able to chelate the selected ion”, the “association constant (order of magnitude)” value ([2]; estimated from titration data, 1:1 complex stoichiometry with Cu(II), MOPS pH 7.4/DMF 1:4) was ~10^4 and the IC50 (SH-SY5Y cells) was 23.7 ± 3.54 µM. The “selectivity index SI” value (SH-SY5Y cells; neurotoxicity IC50 versus BACE-1 IC50) was “around 22”, the IC50 (hBACE-1) was 1060 ± 150 nM and the “Cu(II)-Chelating Activity” value [1, 3] was 7.16%. For the same molecule, the “Cu(II)-Chelating Activity” value [1, 4] was 10.77% and the “Cu(II)-Chelating Activity” value [1, 5] was 15.07% and 15.07 ± 1.32%.
Work on `COc1cc(/C=C/C(=O)c2ccc(OCCOc3ccc(C(=O)c4ccc(CN(C)Cc5ccccc5)cc4)cc3)cc2O)cc(OC)c1OC` (as salt: HCl) [Compound 4, E-1-{4-[2-(4-4-Benzylmethylaminomethylbenzoylphenoxy)ethoxy]-2-hydroxyphenyl}-3-(3,4,5-trimethoxy-phenyl)prop-2-en-1-one] yielded a melting point of 220 to 222 °C.
In the case of “disodium salt of ethylene diaminetetraacetic acid [Na2EDTA, reference compound]”, the “Cu(II)-Chelating Activity” value [1, 5] is reported as 17.10 ± 1.44%.
In the case of `CC(=O)c1ccc(OCCOc2ccc(C(=O)c3ccc(CN(C)Cc4ccccc4)cc3)cc2)cc1O` (as salt: HCl) [Compound 3, 1-{4-[2-(4-4-Benzylmethylaminomethylbenzoylphenoxy)ethoxy]-2-hydroxyphenyl}ethan-1-one], the melting point is reported as 264 to 268 °C.
With `COc1cc(C2CC(=O)c3ccc(OCCOc4ccc(C(=O)c5ccc(CN(C)Cc6ccccc6)cc5)cc4)cc3O2)cc(OC)c1OC` (centres unmarked) (as salt: HCl) [Compound 6, 7-{2-[4-(4-Benzylmethylaminomethylbenzoyl)phenoxy]ethoxy}-2-(3,4,5-trimethoxyphenyl)chroman-4-one] the melting point was 182 to 194 °C.
